From patent US9718825B2, “N-(4-(azaindazol-6-yl)-phenyl)-sulfonamides and their use as pharmaceuticals” (priority 2013, dated 2017)
Read-outs that look alike come from different tables or passages of the source. One block for each compound: values may come before it.

What was measured:
[1] = test system: collagen type X (Col10a1) expression in mouse chondrogenic ATDC5 cells; experiment: Chondrocyte hypertrophic differentiation in mouse chondrogenic ATDC5 cells (collagen type X expression); assay type: cell-based; settings: Col10a1 expression by quantitative real-time PCR after two weeks of cell culture, read-out: IC50 values for the inhibition of collagen type X expression in mouse chondrogenic ATDC5 cells
Source text: D) Determination of the effect on chondrocyte hypertrophic differentiation in mouse chondrogenic ATDC5 cells
The ATDC5 cell assay was used as in vitro model to determine the effects of the compounds of the invention on chondrocyte hypertrophic differentiation by monitoring the expression levels of collagen type X (Col10a1) as specific marker of chondrocyte hypertrophy.
Background: ATDC5 cells are a clonal mouse embryonic cell line derived from multipotent AT805 teratocarcinoma cells (Atsumi, T. et al., A chondrogenic cell line derived from a differentiating culture of AT805 teratocarcinoma cells, Cell Differ. Dev. 1990, 30, 109-116). The cells can undergo insulin-dependent chondrogenic cell differentiation entailing distinct differentiation stages starting from an undifferentiated, subconfluent stage, a condensation stage, a cartilage nodule formation stage and a calcification stage within 45 days of in vitro culture. Chondrogenic differentiation can be shown by measuring the expression of the cartilage main collagen (Col2a1) and aggrecan (AGC1) and glycosaminoglycan-staining with Alcian Blue within two weeks after insulin-triggered differentiation, and hypertrophic differentiation can be monitored by the expression of collagen type X (Col10a1), a specific marker of chondrocyte hypertrophy within 21 days of in vitro culture. (Shukunami, C. et al., Chondrogenic Differentiation of Clonal Mouse Embryonic Cell Lne ATDC5 In Vitro: Differentiation-dependent Gene Expression of Parathyroid Hormone (PTH)/PTH-related Peptide Receptor, J. Cell Biol. 1996, 133, 457-468). Growth factor BMP-2 is known to stimulate cell differentiation and can stimulate early and late-phase ATDC5 differentiation (Shukunami, C. et al., Sequential Progression of the Differentiation Program by Bone Morphogenetic Protein-2 in Chondrogenic Cell Line ATDC5, Exp. Cell Res. 1998, 241, 1-11). Thyroid hormone triiodothyronine (T3) promotes hypertrophic differentiation of growth plate chondrocytes (Robson, H. et al., Thyroid Hormone Acts Directly on Growth Plate Chondrocytes to Promote Hypertrophic Differentiation and Inhibit Clonal Expansion and Cell Proliferation, Endocrinology 2000, 141, 3887-3897). Addition of BMP2 and T3 can accelerate ATDC5 hypertrophic differentiation leading to the strong induction Col10a1 expression between 10-14 days. SGK-inhibitors were added to differentiating ATDC5 cells for 14 days and Col10a1 gene expression was quantified to determine effects on chondrocyte hypertrophic differentiation.
Cell assay description: ATDC5 cells were maintained in 300 cm^2 tissue culture flasks in DMEM/Ham's F12+5% FCS supplemented with 10 μg/ml human transferrin, 30 nM sodium selenite, 50 μg/ml kanamycin and grown at 37° C. in 5% CO2 in 95% air. To initiate cell differentiation, 9.9×10^4 cells were plated in 24 well plates and grown for 2 days. Medium was exchanged with DMEM/Ham's F12+5% FCS supplemented with 10 μg/ml human transferrin, 30 nM sodium selenite, 50 μg/ml ascorbic acid and 1 μg/ml BMP2. The assay was run in triplicates, compounds were added in […], and medium changed every 2-3 days including supplementation of compound. At day 7 after initiation of cell differentiation, 1 μM T3 was used as additional supplement in the cell culture.
After two weeks of cell culture, RNA was isolated and converted to cDNA for determination of gene expression by quantitative real-time PCR. Cells were lysed in 600 μl of RLT-buffer (Qiagen) and total RNA was isolated using the RNA-easy Mini RNA isolation Kit (Qiagen) which was run on a Qiacube system (Qiagen) according to the supplier's instructions. RNA was isolated in 30 μl of pure water and the RNA content measured by UV-spectroscopy (Nanodrop, Peqlab). For cDNA synthesis 50 ng total RNA was reverse transcribed using the High Capacity cDNA Reverse Transcription Kit (Applied Biosystems, Product Number 4368813) according to the manufacturer's instructions. […]

[2] = test system: SGK-1 dependent activation of ENaC-currents in A6 cell monolayers; experiment: Functional electrophysiological assay (Ussing chamber): SGK-1 dependent activation of ENaC-currents in A6 cell monolayers; assay type: cell-based, Xenopus laevis; settings: hypoosmotic shock 45 min, amiloride-sensitive ΔI'sc, read-out: IC50 values for inhibition of SGK-1 dependent activation of ENaC-currents in A6 cell monolayers
Protocol: C) Functional Electrophysiological Assay for Determination of SGK-1 Dependent Activation of ENaC-Currents in A6 Cell Monolayers
Cells were grown in cell culture flasks (Nunc) at 28° C. in a humidified atmosphere with 4% CO2. The culture medium contained a 7:3 mixture of Leibovitz's L-15 (Sigma-Aldrich)/Coon's (Sigma-Aldrich) media supplemented with 10% fetal bovine serum (PAA), 20% sterile water, 25 mM NaHCO3 (Sigma-Aldrich), 100 U/ml penicillin (PAA) and 100 μg/ml streptomycin (PAA). The osmolality of the medium was 270 mOsml/kg H2O). Cells were detached with accutase (PAA) and seeded for electrophysiological measurements into transwell filter inserts (polyester 0.4 μm pore size, Corning) at a density of 0.4×10^6 cells/filter. Cells were cultivated for 7-10 days, and confluent A6 cell monolayers were identified by repetitive resistance measurements in cell culture medium using an EVOM^2 ohmmeter (World Precision Instruments). Monolayers with a resistance of >10 kOhm were considered confluent. Filters with confluent A6 cells were transferred into a continuously perfused Ussing-chamber, and electrophysiological parameters were measured under open circuit conditions using a transepithelial clamp amplifier (EP Design). Short circuit current (I′sc) was calculated by Ohm's law. […] The pH was adjusted to 8.2. All measurements were done at room temperature.
To evaluate the effects of SGK inhibitors on ENaC-mediated transepithelial currents, A6 monolayers were first equilibrated for 5 min with isoosmotic Ringer solution from both the luminal and basolateral side of the cell layer. Amiloride was applied to the luminal site to establish the basal ENaC-dependent current (I′scbasal). Cell layers were then perfused from the basolateral side for 10 min with compounds in isotonic buffer or control isotonic buffer. SGK signaling leading to increased ENaC activity and subsequent increase in I′sc was stimulated by application of hypoosmotic Ringer-solution for 45 min to both sides of the A6 cell layer. ENaC-dependent I′sc after the hypoosmotic shock (I′schypo) was determined by application of amiloride at the end of the experiment. Total changes of amiloride-sensitive Isc was calculated as ΔI′sc=I′schypo−I′scbasal. […] The inhibition of ΔI′sc by the test compounds was determined relative to the ΔI′sc measured with control monolayers which were not treated with the test compound.

[3] = biological target: recombinant human SGK-1 enzyme (Homo sapiens, UniProt O00141); experiment: Enzymatic activity assay: SGK-1 substrate peptide phosphorylation (Caliper lab-chip mobility shift); assay type: biochemical
Chain of recombinant human SGK-1 enzyme (Homo sapiens, UniProt O00141) (O00141 whole entry, looked up): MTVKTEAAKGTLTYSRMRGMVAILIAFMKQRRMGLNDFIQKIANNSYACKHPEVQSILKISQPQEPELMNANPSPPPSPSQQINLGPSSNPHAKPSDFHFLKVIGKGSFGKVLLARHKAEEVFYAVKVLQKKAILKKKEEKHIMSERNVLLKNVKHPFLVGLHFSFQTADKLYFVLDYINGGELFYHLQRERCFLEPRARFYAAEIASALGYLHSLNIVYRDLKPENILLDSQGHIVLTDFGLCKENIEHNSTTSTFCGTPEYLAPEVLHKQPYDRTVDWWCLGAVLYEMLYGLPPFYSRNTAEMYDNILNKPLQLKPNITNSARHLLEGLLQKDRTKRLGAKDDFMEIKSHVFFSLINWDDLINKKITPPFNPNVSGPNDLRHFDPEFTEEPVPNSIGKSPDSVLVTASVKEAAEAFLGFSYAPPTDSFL

[4] = test system: SGK-1 dependent phosphorylation of GSK3beta in U2OS cells; experiment: SGK-1 dependent phosphorylation of GSK3beta in U2OS cells overexpressing recombinant SGK-1 and GSK3beta; assay type: cell-based, human; settings: read-out: IC50 values for inhibition of SGK-1 dependent phosphorylation of GSK3beta in U2OS cells
[5] = biological target: recombinant human SGK-1 enzyme; experiment: Enzymatic activity assay: SGK-1 substrate peptide phosphorylation (Caliper lab-chip mobility shift); assay type: biochemical; settings: peptide substrate 1 μM, ATP 10 μM, 60 min at 37° C., read-out: IC50 values for inhibition of SGK-1 enzymatic activity
[6] = Mus musculus, Chondrocyte, 336 h
[7] = read-out: IC50 values for inhibition of SGK-1 enzymatic activity, peptide substrate 1 μM, ATP 10 μM, 60 min at 37° C.
[8] = Homo sapiens, U2OS cells, 6 h incubation, ratio of phosphorylated GSK3beta to total GSK3beta
[9] = peptide substrate 1 μM, ATP 10 μM, 60 min at 37° C., read-out: IC50 values for inhibition of SGK-1 enzymatic activity
[10] = U2OS cells, 6 h incubation, ratio of phosphorylated GSK3beta to total GSK3beta

IC50 ([2]; Xenopus laevis, INA-6, 0.75 h): 3400 nM
SMILES: O=S(=O)(Nc1ccc(-c2nc(OC3CCC(O)CC3)c3cn[nH]c3n2)cc1)c1cc(Cl)ccc1F (stereo not drawn) [Example 3, 5-Chloro-2-fluoro-N-{4-[4-(4-hydroxy-cyclohexyloxy)-1H-pyrazolo[3,4-d]pyrimidin-6-yl]-phenyl}-benzenesulfonamide]
IC50 [1, 6]: 52 nM

SMILES: Cc1ccc(C#N)c(S(=O)(=O)Nc2ccc(-c3nc(OC4CCC(O)CC4)c4cn[nH]c4n3)cc2)c1 (stereo not drawn) [Example 4, 2-Cyano-N-{4-[4-(4-hydroxy-cyclohexyloxy)-1H-pyrazolo[3,4-d]pyrimidin-6-yl]-phenyl}-5-methyl-benzenesulfonamide]
IC50 [1, 6]: 9 nM
IC50 [3, 7]: < 1.5 nM
IC50 ([2]; Xenopus laevis, INA-6, 0.75 h): 3200 nM
IC50 [4, 8]: 110 nM

SMILES: O=S(=O)(Nc1ccc(-c2nc(OC3CCC(O)CC3)c3cn[nH]c3n2)cc1)c1cc(Cl)ccc1Cl (stereo not drawn) [Example 61]
IC50 [1]: 36 nM
IC50 [3, 9]: < 1.2 nM
IC50 [2]: 1400 nM
IC50 [4, 10]: 430 nM

SMILES: N#Cc1ccc(Cl)cc1S(=O)(=O)Nc1ccc(-c2nc(OC3CCC(O)CC3)c3cn[nH]c3n2)cc1 (stereo not drawn) [Example 83]
IC50 [1]: 130 nM
IC50 [3, 9]: 2 nM
IC50 [2]: 1900 nM
IC50 [4, 10]: 2100 nM

SMILES: Cc1n[nH]c2nc(-c3ccc(NS(=O)(=O)c4cc(Cl)ccc4F)cc3)nc(OC3CCN(C(C)C)CC3)c12 [Example 346]
IC50 [1]: 66 nM
IC50 [3, 9]: 3.2 nM
IC50 [2]: 2000 nM

SMILES: Cc1n[nH]c2nc(-c3ccc(NS(=O)(=O)c4cc(F)ccc4F)cc3)nc(OC3CCN(C(C)C)CC3)c12 [Example 349]
IC50 [1]: 380 nM
IC50 [3, 9]: 8.4 nM
IC50 [2]: 3200 nM

IC50 ([2]; Xenopus laevis, INA-6, 0.75 h): 190 nM
IC50 [4, 8]: 3700 nM
SMILES: N#Cc1ccc(Cl)cc1S(=O)(=O)Nc1ccc(-c2ncc3c(N)n[nH]c3n2)cc1 [Example 446, N-[4-(3-Amino-1H-pyrazolo[3,4-d]pyrimidin-6-yl)-phenyl]-5-chloro-2-cyano-benzenesulfonamide]
IC50 [1, 6]: 550 nM

SMILES: Cc1nc(-c2ccc(NS(=O)(=O)c3cc(Cl)c(F)cc3F)cc2)nc2[nH]nc(N)c12 [Example 447, N-[4-(3-Amino-4-methyl-1H-pyrazolo[3,4-d]pyrimidin-6-yl)-phenyl]-5-chloro-2,4-difluoro-benzenesulfonamide]
IC50 [1, 6]: 330 nM
IC50 [3, 7]: < 1.5 nM
IC50 ([2]; Xenopus laevis, INA-6, 0.75 h): 60 nM
IC50 [4, 8]: 340 nM

SMILES: COc1ccc(Cl)c(S(=O)(=O)Nc2ccc(-c3nc(C)c4c(N)n[nH]c4n3)cc2)c1 [Example 467]
IC50 [1]: 53 nM
IC50 [3, 9]: < 1.5 nM
IC50 [2]: 160 nM
IC50 [4, 10]: 150 nM

SMILES: Cc1ccc(C#N)c(S(=O)(=O)Nc2ccc(-c3nc(C)c4c(N)n[nH]c4n3)cc2)c1 [Example 468]
IC50 [1]: 870 nM
IC50 [3, 9]: < 1.5 nM
IC50 [2]: 610 nM
IC50 [4, 10]: 230 nM

SMILES: Cc1nc(-c2ccc(NS(=O)(=O)c3cc(Cl)ccc3C#N)cc2)nc2[nH]ncc12 [Example 492]
IC50 [1]: 660 nM
IC50 [3, 9]: 3.8 nM
IC50 [2]: 1100 nM
IC50 [4, 10]: 4200 nM

SMILES: Nc1n[nH]c2nc(-c3ccc(NS(=O)(=O)c4cc(F)ccc4F)cc3)ncc12 [Example 519]
IC50 [1]: 260 nM
IC50 [3, 9]: 190 nM
IC50 [2]: 1100 nM
IC50 [4, 10]: 260 nM

SMILES: COc1ccc(C#N)c(S(=O)(=O)Nc2ccc(-c3nc(C4CC4)c4c(N)n[nH]c4n3)cc2)c1 [Example 520]
IC50 [1]: 30 nM
IC50 [3, 9]: < 1.5 nM
IC50 [2]: 500 nM
IC50 [4, 10]: 61 nM

SMILES: Nc1n[nH]c2cc(-c3ccc(NS(=O)(=O)c4cc(Cl)c(F)cc4F)cc3)nc(O)c12 [Example 549, N-[4-(3-Amino-4-hydroxy-1H-pyrazolo[4,3-c]pyridin-6-yl)phenyl]-5-chloro-2,4-difluoro-benzenesulfonamide]
IC50 [5]: 7.7 nM

SMILES: Cc1ccc(C#N)c(S(=O)(=O)Nc2ccc(-c3cc4[nH]nc(C)c4cn3)cc2)c1 [Example 561, 2-Cyano-5-methyl-N-[4-(3-methyl-1H-pyrazolo[4,3-c]pyridin-6-yl)phenyl]benzenesulfonamide]
IC50 [5]: 7.8 nM
IC50 ([4]; Homo sapiens, U2OS, 6 h): 2700 nM

SMILES: O=S(=O)(Nc1ccc(-c2cc3[nH]ncc3cn2)cc1)c1cc(Cl)ccc1Cl [Example 563, 2,5-Dichloro-N-[4-(1H-pyrazolo[4,3-c]pyridin-6-yl)phenyl]benzenesulfonamide]
IC50 [5]: 52 nM
